The assay addresses ASGPR (Homo sapiens (Human), UniProt P07306). The experiment in a line: Affinity to ASGPR measured by surface plasmon resonance (SPR). The format is binding. (SPR reads the build-up and loss of mass on a sensor chip optically.)
The mark [1] stands for this setting: ASGPR ligands, Table 4, class symbols, read-out: ASGPR_PR Binding KD.
Setting [2] is: ASGPR ligands, Table 4, numeric lower bounds, read-out: ASGPR_PR Binding KD.
[3] abbreviates: ASGPR ligands, Table 2, Biacore 8K, 25° C., steady state fit, read-out: SPR Binding External Calculation: KD.

Like-named read-outs stand apart in the source and are kept apart here. Bridge positions count the residues as written; N and C are the ends. Peptide text beside a SMILES is read from it. * marks the point of attachment. X1 = O=C(CCOCC(COCCC(=O)NCCOCCOCCOCCOC[C@@]12CO[C@@H](O1)[C@H](NC(=O)C(F)(F)F)[C@@H](O)[C@H]2O)(COCCC(=O)NCCOCCOCCOCCOC[C@@]12CO[C@@H](O1)[C@H](NC(=O)C(F)(F)F)[C@@H](O)[C@H]2O)NC(=O)CCO[C@H]1C[C@H](OCCC(=O)*)C1)NCCOCCOCCOCCOC[C@@]12CO[C@@H](O1)[C@H](NC(=O)C(F)(F)F)[C@@H](O)[C@H]2O; X3 = CO[C@@H]1O[C@H](COCCOCCOCCOCCNC(=O)CCOCC(COCCC(=O)NCCOCCOCCOCCOC[C@H]2O[C@@H](OC)[C@H](NC(C)=O)[C@@H](O)[C@H]2O)(COCCC(=O)NCCOCCOCCOCCOC[C@H]2O[C@@H](OC)[C@H](NC(C)=O)[C@@H](O)[C@H]2O)NC(=O)COCCOCCOCC(=O)*)[C@H](O)[C@H](O)[C@H]1NC(C)=O

Sequence of ASGPR (P07306 whole entry): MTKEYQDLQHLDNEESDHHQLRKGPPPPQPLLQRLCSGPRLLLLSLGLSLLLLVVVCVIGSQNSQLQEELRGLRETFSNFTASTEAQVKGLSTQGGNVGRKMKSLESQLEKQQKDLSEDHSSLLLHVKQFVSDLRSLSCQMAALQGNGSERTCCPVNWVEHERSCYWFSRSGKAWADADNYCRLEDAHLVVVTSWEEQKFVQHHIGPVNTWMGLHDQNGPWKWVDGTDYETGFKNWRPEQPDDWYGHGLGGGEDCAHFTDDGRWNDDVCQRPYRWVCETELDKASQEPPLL

Usually Kd stands for the concentration at which binding is half-saturated. `CO[C@H]1O[C@H](CO)[C@H](O)C[C@H]1Nc1nc(N2CCOCC2)ns1` [Compound A382]: under setting [1], the Kd was below 100 µM.
The same measure, in the same setting: for `COc1cc(N[C@H]2CO[C@H](CO)[C@H](O)[C@@H]2O)nc(C(F)(F)F)n1` [Compound A359, (2R,3R,4R,5S)-2-(hydroxymethyl)-5-((6-methoxy-2-(trifluoromethyl)pyrimidin-4-yl)amino)tetrahydro-2H-pyran-3,4-diol] the value was below 100 µM; for `CO[C@H]1O[C@H](CO)[C@H](O)[C@H](O)[C@H]1Nc1ncns1` [Compound A378], below 100 µM.
With `Nc1nsc(N[C@H]2CO[C@H](CO)[C@H](O)[C@@H]2O)n1` [Compound A341, (2R,3R,4R,5S)-5-((3-amino-1,2,4-thiadiazol-5-yl)amino)-2-(hydroxymethyl)tetrahydro-2H-pyran-3,4-diol], under setting [1], the dissociation constant Kd is below 100 µM.
As to `CN(C)C(=O)[C@@H]1CO[C@H](CO)[C@H](O)[C@@H]1O` [Compound A170, (3R,4R,5R,6R)-4,5-dihydroxy-6-(hydroxymethyl)-N,N-dimethyltetrahydro-2H-pyran-3-carboxamide], the Kd under setting [2] was above 200 µM.
As to `N#Cc1sc(N[C@H]2CO[C@H](CO)[C@H](O)[C@@H]2O)nc1Cl` [Compound A95, 4-chloro-2-(((3S,4R,5R,6R)-4,5-dihydroxy-6-(hydroxymethyl)tetrahydro-2H-pyran-3-yl)amino)thiazole-5-carbonitrile], the Kd under setting [3] was below 100 µM.
`CN1CCN(c2nsc(N[C@H]3CO[C@H](CO)[C@H](O)[C@@H]3O)n2)CC1` [Compound A338, (2R,3R,4R,5S)-2-(hydroxymethyl)-5-((3-(4-methylpiperazin-1-yl)-1,2,4-thiadiazol-5-yl)amino)tetrahydro-2H-pyran-3,4-diol]: under setting [1], the dissociation constant (Kd) was below 100 µM.
With `CC(C)C[C@@H]1NC(=O)[C@@H](NC(=O)[C@@H](NC(=O)[C@H](CCC(N)=O)NC(=O)[C@H](Cc2cnc[nH]2)NC(=O)CCO[C@H]2C[C@H](OCCC(=O)NC(COCCC(=O)NCCOCCOCCOCCOC[C@@]34CO[C@@H](O3)[C@H](NC(=O)C(F)(F)F)[C@@H](O)[C@H]4O)(COCCC(=O)NCCOCCOCCOCCOC[C@@]34CO[C@@H](O3)[C@H](NC(=O)C(F)(F)F)[C@@H](O)[C@H]4O)COCCC(=O)NCCOCCOCCOCCOC[C@@]34CO[C@@H](O3)[C@H](NC(=O)C(F)(F)F)[C@@H](O)[C@H]4O)C2)C(C)C)CSSC[C@@H](C(=O)N[C@@H](Cc2ccccc2)C(=O)N[C@@H](CO)C(=O)N[C@H](C(N)=O)[C@@H](C)O)NC(=O)[C@H](C(C)C)NC(=O)[C@@H]2CCCN2C(=O)[C@H](CCCNC(=N)N)NC(=O)CNC(=O)[C@H](CCCNC(=N)N)NC(=O)[C@H](Cc2ccc(O)cc2)NC(=O)[C@H](CO)NC1=O` [Compound 31] (X1-HQVCLSYRGRPVCFST-NH2; disulfide 4-13), the equilibrium dissociation constant (Kd) (ASGPR ligands with linker, Table 5, read-out: ASGPR_SPR Binding KD) is below 100 µM.
On to `OC[C@H]1OC[C@@H](N2CCOCC2)[C@@H](O)[C@H]1O` [Compound A222, (2R,3R,4R,5R)-2-(hydroxymethyl)-5-morpholinotetrahydro-2H-pyran-3,4-diol], for which, under setting [1], the equilibrium dissociation constant (Kd) fell in the range of 100 to 500 µM.
Consider `[N-]=[N+]=NCC1CO[C@H](CO)[C@H](O)[C@@H]1O` (stereo partly drawn) [Compound A184, (2R,3R,4R)-5-(azidomethyl)-2-(hydroxymethyl)tetrahydro-2H-pyran-3,4-diol], for which the Kd under setting [3] is below 100 µM.
Consider `CS(=O)(=O)N[C@@H]1CO[C@H](CO)[C@H](O)[C@@H]1O` [Compound A131, N-((3R,4R,5R,6R)-4,5-dihydroxy-6-(hydroxymethyl)tetrahydro-2H-pyran-3-yl)methanesulfonamide], for which the dissociation constant (Kd) under setting [1] is 100 to 500 µM.
For `N#Cc1cnc(N[C@H]2CO[C@H](CO)[C@H](O)[C@@H]2O)s1` [Compound A372, 2-(((3S,4R,5R,6R)-4,5-dihydroxy-6-(hydroxymethyl)tetrahydro-2H-pyran-3-yl)amino)thiazole-5-carbonitrile], the Kd under setting [2] was above 20 µM.
For `OC[C@H]1OC[C@@H](COc2ccccc2)[C@@H](O)[C@H]1O` [Compound A193, (2R,3R,4R,5S)-2-(hydroxymethyl)-5-(phenoxymethyl)tetrahydro-2H-pyran-3,4-diol], under setting [3], the Kd was 100 to 500 µM.
`COC(=O)c1cc(OC)nc(N[C@H]2CO[C@H](CO)[C@H](O)[C@@H]2O)n1` [Compound A374, methyl 2-(((3S,4R,5R,6R)-4,5-dihydroxy-6-(hydroxymethyl)tetrahydro-2H-pyran-3-yl)amino)-6-methoxypyrimidine-4-carboxylate]: the Kd under setting [2] was above 20 µM.
`CO[C@@H]1O[C@H](CO)[C@H](O)[C@H](O)[C@H]1Nc1nc(Cl)ns1` [Compound A106, (2R,3R,4R,5R,6R)-5-((3-chloro-1,2,4-thiadiazol-5-yl)amino)-2-(hydroxymethyl)-6-methoxytetrahydro-2H-pyran-3,4-diol]: the Kd under setting [3] was below 100 µM.
With `CO[C@@H]1O[C@H](COCCOCCOCCOCCNC(=O)CCOCC(COCCC(=O)NCCOCCOCCOCCOC[C@H]2O[C@@H](OC)[C@H](NC(C)=O)[C@@H](O)[C@H]2O)(COCCC(=O)NCCOCCOCCOCCOC[C@H]2O[C@@H](OC)[C@H](NC(C)=O)[C@@H](O)[C@H]2O)NC(=O)COCCOCCOCC(=O)N[C@@H](Cc2cnc[nH]2)C(=O)N[C@@H](CCC(N)=O)C(=O)N[C@H](C(=O)N[C@H]2CSSC[C@@H](C(=O)N[C@@H](Cc3ccccc3)C(=O)N[C@@H](CO)C(=O)N[C@H](C(N)=O)[C@@H](C)O)NC(=O)[C@H](C(C)C)NC(=O)[C@@H]3CCCN3C(=O)[C@H](CCCNC(=N)N)NC(=O)CNC(=O)[C@H](CCCNC(=N)N)NC(=O)[C@H](Cc3ccc(O)cc3)NC(=O)[C@H](CO)NC(=O)[C@H](CC(C)C)NC2=O)C(C)C)[C@H](O)[C@H](O)[C@H]1NC(C)=O` [Compound 30] (X3-HQVCLSYRGRPVCFST-NH2; disulfide 4-13), under “read-out: ASGPR_SPR Binding KD”, the Kd is below 100 µM.
For the compound `OC[C@H]1O[C@H]2[C@@H]([C@@H](O)[C@H]1O)C2(Cl)Cl` [Compound A397, (1S,3R,4R,5R,6R)-7,7-dichloro-3-(hydroxymethyl)-2-oxabicyclo[4.1.0]heptane-4,5-diol], under setting [1], the equilibrium dissociation constant (Kd) fell in the range of 100 to 500 µM.
Turning to `COc1nc(N[C@H]2CO[C@H](CO)[C@H](O)[C@@H]2O)nc(OC)n1` [Compound A325], the Kd under setting [1] is below 100 µM.
In the case of `OC[C@H]1OC[C@H](Nc2nc(C(F)(F)F)cs2)[C@@H](O)[C@H]1O` [Compound A306], the Kd under setting [1] was below 100 µM.
`OC[C@H]1OC[C@H](Nc2nc3ccccc3s2)[C@@H](O)[C@H]1O` [Compound A354, (2R,3R,4R,5S)-5-(benzo[d]thiazol-2-ylamino)-2-(hydroxymethyl)tetrahydro-2H-pyran-3,4-diol]: under setting [1], the equilibrium dissociation constant (Kd) was below 100 µM.
`OC[C@H]1OC[C@H](Nc2nc3ccc(C(F)(F)F)cc3s2)[C@@H](O)[C@H]1O` [Compound A322]: the dissociation constant Kd under setting [2] was above 20 µM.
`OC[C@H]1OC[C@@H](c2ccc(F)cc2)[C@@H](O)[C@H]1O` [Compound A164, (2R,3R,4R,5R)-5-(4-fluorophenyl)-2-(hydroxymethyl)tetrahydro-2H-pyran-3,4-diol]: under setting [3], the dissociation constant Kd is 500 to 1000 µM.
On to `COc1cc(N[C@H]2CO[C@H](CO)[C@H](O)[C@@H]2O)nc(C#N)n1` [Compound A333], for which the Kd under setting [2] was above 10 µM.
As to `N#Cc1nc(Cl)cc(N[C@H]2CO[C@H](CO)[C@H](O)[C@@H]2O)n1` [Compound A320], the Kd under setting [1] was below 100 µM.
`CO[C@@H]1O[C@H](CO)[C@H](O)[C@H](O)[C@H]1Nc1ncc(Cl)cc1F` [Compound A109]: the dissociation constant Kd under setting [3] was below 100 µM.
`OC[C@H]1OC[C@@H](NC2=NCCC(C(F)(F)F)=N2)[C@@H](O)[C@H]1O` [Compound A389]: the Kd under setting [2] was above 20 µM.
On to `CO[C@@H]1O[C@H](CO)[C@H](O)[C@H](O)[C@H]1n1ccc(=O)cc1` [Compound A119, 1-((2R,3R,4R,5R,6R)-4,5-dihydroxy-6-(hydroxymethyl)-2-methoxytetrahydro-2H-pyran-3-yl)pyridin-4(1H)-one], for which the Kd under setting [3] was below 100 µM.
As for `OC[C@H]1OC[C@H](Nc2ccc(C(F)(F)F)nn2)[C@@H](O)[C@H]1O` [Compound A313], under setting [2], the Kd was above 20 µM.
Turning to `O=C1OCCN1[C@@H]1CO[C@H](CO)[C@H](O)[C@@H]1O` [Compound A223, 3-((3R,4R,5R,6R)-4,5-dihydroxy-6-(hydroxymethyl)tetrahydro-2H-pyran-3-yl)oxazolidin-2-one], under setting [1], the Kd was below 100 µM.
Turning to `OC[C@H]1OC[C@H](Nc2cc(C(F)(F)F)ccn2)[C@@H](O)[C@H]1O` [Compound A356, (2R,3R,4R,5S)-2-(hydroxymethyl)-5-((4-(trifluoromethyl)pyridin-2-yl)amino)tetrahydro-2H-pyran-3,4-diol], the dissociation constant (Kd) under setting [2] is above 20 µM.
For the compound `N#Cc1cccc(N[C@H]2CO[C@H](CO)[C@H](O)[C@@H]2O)n1` [Compound A332], the Kd under setting [1] was below 100 µM.
For `OC[C@@]12CO[C@@H](O1)[C@H](Nc1nc(Cl)ns1)[C@@H](O)[C@H]2O` [Compound A287, (1S,2R,3R,4R,5S)-4-((3-chloro-1,2,4-thiadiazol-5-yl)amino)-1-(hydroxymethyl)-6,8-dioxabicyclo[3.2.1]octane-2,3-diol], the Kd under setting [1] is below 100 µM.
For `CC(C)C[C@H]1NC(=O)[C@@H](CC(=O)[C@@H](NC(=O)[C@H](CCC(N)=O)NC(=O)[C@H](Cc2cnc[nH]2)NC(=O)CCOCCOCCOCCOCCNC(=O)CCCc2cn(CCCC(=O)NCCOCc3cnn(CCOCCOCCOCCO[C@@]45CO[C@@H](O4)[C@H](NC(=O)C(F)(F)F)[C@@H](O)[C@H]5O)c3)nn2)C(C)C)CSSC[C@@H](C(=O)N[C@@H](Cc2ccccc2)C(=O)N[C@@H](CO)C(=O)NC(C=O)[C@@H](C)O)NC(=O)[C@H](C(C)C)NC(=O)[C@@H]2CCCN2C(=O)[C@H](CCCNC(=N)N)NC(=O)CNC(=O)[C@@H](CCCNC(=N)N)NC(=O)[C@H](Cc2ccc(O)cc2)NC(=O)[C@H](CO)CC1=O` (stereo partly shown) [Compound 26], the Kd (extracellular protein degrading compounds, Table 3, read-out: SPR Binding External Calculation: KD (uM) ASGPR) was below 100 µM.
For `CO[C@@H]1O[C@H](CO)[C@H](O)[C@H](O)[C@H]1Nc1nc(N2CCOCC2)ns1` [Compound A117, (2R,3R,4R,5R,6R)-2-(hydroxymethyl)-6-methoxy-5-((3-morpholino-1,2,4-thiadiazol-5-yl)amino)tetrahydro-2H-pyran-3,4-diol], the dissociation constant (Kd) under setting [3] was 100 to 500 µM.

Source of the values: patent publication US20240072809A1, “ASGPR-BINDING COMPOUNDS FOR THE DEGRADATION OF EXTRACELLULAR PROTEINS” (Avilar Therapeutics, Inc., priority 2020, published 2024).
